Like-named read-outs stand apart in the source and are kept apart here.
Columns and labels:
Assay type in all cases: in vivo
[1] = tested on: giant foxtail (Setaria faberii); assay: Test A preemergence; conditions: Setaria faberi, pre-emergence, 240 h, preemergence, 0 to 100 scale where 0 is no effect and 100 is complete control, read-out: Foxtail, Giant plant response rating; for pest or weed control at 125 g/ha: 125 g ai/ha, approx. 10 d; for pest or weed control at 500 g/ha: 500 g ai/ha
How it was run: (§1)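 Ratings of 0 (no effect) to 100 (complete control) come from visual comparison with untreated controls roughly 10 d after treatment. Test chemicals, formulated in a non-phytotoxic solvent mixture with surfactant, were applied either as a preemergence directed soil spray on seeded soil or postemergence to one- to two-leaf plants 2 to 10 cm tall.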

[2] = tested on: barnyardgrass (Echinochloa crus-galli); assay: Test A preemergence; conditions: Echinochloa crus-galli, pre-emergence, 240 h, preemergence, 0 to 100 scale where 0 is no effect and 100 is complete control, read-out: Barnyardgrass plant response rating; for pest or weed control at 125 g/ha: 125 g ai/ha, approx. 10 d; for pest or weed control at 500 g/ha: 500 g ai/ha
How it was run: as §1

[3] = tested on: pigweed (Amaranthus retroflexus); assay: Test A preemergence; conditions: Amaranthus retroflexus, pre-emergence, 240 h, preemergence, 0 to 100 scale where 0 is no effect and 100 is complete control, read-out: Pigweed plant response rating; for pest or weed control at 125 g/ha: 125 g ai/ha, approx. 10 d; for pest or weed control at 500 g/ha: 500 g ai/ha
[4] = tested on: Kochia (Kochia scoparia); assay: Test A preemergence; conditions: Bassia scoparia, pre-emergence, 240 h, preemergence, 0 to 100 scale where 0 is no effect and 100 is complete control, read-out: Kochia plant response rating; for pest or weed control at 125 g/ha: 125 g ai/ha, approx. 10 d; for pest or weed control at 500 g/ha: 500 g ai/ha
How it was run: as §1

[5] = tested on: ragweed (common ragweed, Ambrosia elatior); assay: Test A preemergence; conditions: Ambrosia artemisiifolia, pre-emergence, 240 h, preemergence, 0 to 100 scale where 0 is no effect and 100 is complete control, read-out: Ragweed plant response rating; for pest or weed control at 125 g/ha: 125 g ai/ha, approx. 10 d; for pest or weed control at 500 g/ha: 500 g ai/ha
How it was run: as §1

[6] = tested on: ryegrass, Italian (Italian ryegrass, Lolium multiflorum); assay: Test A preemergence; conditions: Lolium multiflorum, pre-emergence, 240 h, preemergence, 0 to 100 scale where 0 is no effect and 100 is complete control, read-out: Ryegrass, Italian plant response rating; for pest or weed control at 125 g/ha: 125 g ai/ha, approx. 10 d; for pest or weed control at 500 g/ha: 500 g ai/ha
How it was run: as §1

[7] = tested on: giant foxtail (Setaria faberii); assay: Test A postemergence; conditions: Setaria faberi, post-emergence, 240 h, postemergence; for pest or weed control at 125 g/ha: 125 g ai/ha; for pest or weed control at 500 g/ha: 500 g ai/ha, 0 to 100 scale, 0 is no effect, 100 is complete control
How it was run: as §1

[8] = tested on: blackgrass (Alopecurus myosuroides); assay: Test A postemergence; conditions: Alopecurus myosuroides, post-emergence, 240 h, postemergence; for pest or weed control at 125 g/ha: 125 g ai/ha; for pest or weed control at 500 g/ha: 500 g ai/ha, 0 to 100 scale, 0 is no effect, 100 is complete control
How it was run: as §1

[9] = tested on: barnyardgrass (Echinochloa crus-galli); assay: Test A postemergence; conditions: Echinochloa crus-galli, post-emergence, 240 h, postemergence; for pest or weed control at 125 g/ha: 125 g ai/ha; for pest or weed control at 500 g/ha: 500 g ai/ha, 0 to 100 scale, 0 is no effect, 100 is complete control
How it was run: as §1

[10] = tested on: pigweed (Amaranthus retroflexus); assay: Test A postemergence; conditions: Amaranthus retroflexus, post-emergence, 240 h, postemergence; for pest or weed control at 125 g/ha: 125 g ai/ha; for pest or weed control at 500 g/ha: 500 g ai/ha, 0 to 100 scale, 0 is no effect, 100 is complete control
How it was run: as §1

[11] = tested on: Kochia (Kochia scoparia); assay: Test A postemergence; conditions: Bassia scoparia, post-emergence, 240 h, postemergence; for pest or weed control at 125 g/ha: 125 g ai/ha; for pest or weed control at 500 g/ha: 500 g ai/ha, 0 to 100 scale, 0 is no effect, 100 is complete control
How it was run: as §1

[12] = tested on: ragweed (common ragweed, Ambrosia elatior); assay: Test A postemergence; conditions: Ambrosia artemisiifolia, post-emergence, 240 h, postemergence; for pest or weed control at 125 g/ha: 125 g ai/ha; for pest or weed control at 500 g/ha: 500 g ai/ha, 0 to 100 scale, 0 is no effect, 100 is complete control
How it was run: as §1

[13] = tested on: ryegrass, Italian (Italian ryegrass, Lolium multiflorum); assay: Test A postemergence; conditions: Lolium multiflorum, post-emergence, 240 h, postemergence; for pest or weed control at 125 g/ha: 125 g ai/ha; for pest or weed control at 500 g/ha: 500 g ai/ha, 0 to 100 scale, 0 is no effect, 100 is complete control
How it was run: as §1

[14] = tested on: wheat (Triticum aestivum); assay: Test A postemergence; conditions: Triticum aestivum, post-emergence, 240 h, postemergence; for plant injury at 125 g/ha: 125 g ai/ha; for plant injury at 500 g/ha: 500 g ai/ha, 0 to 100 scale, 0 is no effect, 100 is complete control
How it was run: as §1

[15] = tested on: corn (Zea mays); assay: Test A postemergence; conditions: Zea mays, post-emergence, 240 h, postemergence; for plant injury at 125 g/ha: 125 g ai/ha; for plant injury at 500 g/ha: 500 g ai/ha, 0 to 100 scale, 0 is no effect, 100 is complete control
How it was run: as §1

[16] = tested on: Galium (catchweed bedstraw, Galium aparine); assay: Test A postemergence; conditions: Galium, post-emergence, 240 h, postemergence; for pest or weed control at 125 g/ha: 125 g ai/ha; for pest or weed control at 500 g/ha: 500 g ai/ha, 0 to 100 scale, 0 is no effect, 100 is complete control
How it was run: as §1

[17] = read-out: Foxtail, Giant plant response rating
[18] = read-out: Blackgrass plant response rating
[19] = read-out: Barnyardgrass plant response rating
[20] = read-out: Pigweed plant response rating
[21] = read-out: Kochia plant response rating
[22] = read-out: Ragweed plant response rating
[23] = read-out: Ryegrass, Italian plant response rating
[24] = read-out: Wheat plant response rating
[25] = read-out: Corn plant response rating
[26] = read-out: Galium plant response rating

Row | Compound | pest or weed control at 125 g/ha [1] | pest or weed control at 500 g/ha [1] | pest or weed control at 125 g/ha [2] | pest or weed control at 500 g/ha [2] | pest or weed control at 125 g/ha [3] | pest or weed control at 500 g/ha [3] | pest or weed control at 125 g/ha [4] | pest or weed control at 500 g/ha [4] | pest or weed control at 125 g/ha [5] | pest or weed control at 500 g/ha [5] | pest or weed control at 125 g/ha [6] | pest or weed control at 500 g/ha [6] | pest or weed control at 500 g/ha [7, 17] | pest or weed control at 500 g/ha [8, 18] | pest or weed control at 500 g/ha [9, 19] | pest or weed control at 500 g/ha [10, 20] | pest or weed control at 500 g/ha [11, 21] | pest or weed control at 500 g/ha [12, 22] | pest or weed control at 500 g/ha [13, 23] | plant injury at 500 g/ha [14, 24] | also measured
1 | Cc1c(F)cccc1NC(=O)[C@H]1C(=O)N(C)C[C@@H]1c1cc(F)cc(F)c1 [Compound 1140] | 100% | 100% | 90% | 100% | 0% | 40% | 80% | 80% | 30% | 60% | 30% | 40% | 90% | 70% | 90% | 0% | 40% | 30% | 70% | 70% | pest or weed control at 125 g/ha ([7]; visual injury on 0 to 100 scale (0 no effect, 100 complete control), approx. 10 d, read-out: Foxtail, Giant plant response rating): 90%; pest or weed control at 125 g/ha ([8]; visual injury on 0 to 100 scale (0 no effect, 100 complete control), approx. 10 d, read-out: Blackgrass plant response rating): 30%; pest or weed control at 125 g/ha ([9]; visual injury on 0 to 100 scale (0 no effect, 100 complete control), approx. 10 d, read-out: Barnyardgrass plant response rating): 90%; pest or weed control at 125 g/ha ([10]; visual injury on 0 to 100 scale (0 no effect, 100 complete control), approx. 10 d, read-out: Pigweed plant response rating): 0%; pest or weed control at 125 g/ha ([11]; visual injury on 0 to 100 scale (0 no effect, 100 complete control), approx. 10 d, read-out: Kochia plant response rating): 0%; pest or weed control at 125 g/ha ([12]; visual injury on 0 to 100 scale (0 no effect, 100 complete control), approx. 10 d, read-out: Ragweed plant response rating): 0%; pest or weed control at 125 g/ha ([13]; visual injury on 0 to 100 scale (0 no effect, 100 complete control), approx. 10 d, read-out: Ryegrass, Italian plant response rating): 50%; plant injury at 125 g/ha ([14]; visual injury on 0 to 100 scale (0 no effect, 100 complete control), approx. 10 d, read-out: Wheat plant response rating): 30%; plant injury at 125 g/ha ([15]; visual injury on 0 to 100 scale (0 no effect, 100 complete control), approx. 10 d, read-out: Corn plant response rating): 60%; plant injury at 500 g/ha [15, 25]: 70%; pest or weed control at 125 g/ha ([16]; visual injury on 0 to 100 scale (0 no effect, 100 complete control), approx. 10 d, read-out: Galium plant response rating): 40%; pest or weed control at 500 g/ha [16, 26]: 50%
2 | CCc1cc([C@H]2CNC(=O)[C@@H]2C(=O)Nc2cccc(F)c2F)cs1 [Compound 1155] | 70% | 90% | 90% | 100% | 0% | 30% | 60% | 90% | 40% | 80% | 0% | 30% | 70% | 0% | 90% | 0% | 0% | 40% | 20% | 50% | pest or weed control at 125 g/ha ([7]; visual injury vs untreated controls after approx. 10 d, 0 = no effect, 100 = complete control, read-out: Foxtail, Giant plant response rating (0 to 100 scale)): 30%; pest or weed control at 125 g/ha ([8]; visual injury vs untreated controls after approx. 10 d, 0 = no effect, 100 = complete control, read-out: Blackgrass plant response rating (0 to 100 scale)): 0%; pest or weed control at 125 g/ha ([9]; visual injury vs untreated controls after approx. 10 d, 0 = no effect, 100 = complete control, read-out: Barnyardgrass plant response rating (0 to 100 scale)): 80%; pest or weed control at 125 g/ha ([10]; visual injury vs untreated controls after approx. 10 d, 0 = no effect, 100 = complete control, read-out: Pigweed plant response rating (0 to 100 scale)): 0%; pest or weed control at 125 g/ha ([11]; visual injury vs untreated controls after approx. 10 d, 0 = no effect, 100 = complete control, read-out: Kochia plant response rating (0 to 100 scale)): 0%; pest or weed control at 125 g/ha ([12]; visual injury vs untreated controls after approx. 10 d, 0 = no effect, 100 = complete control, read-out: Ragweed plant response rating (0 to 100 scale)): 0%; pest or weed control at 125 g/ha ([13]; visual injury vs untreated controls after approx. 10 d, 0 = no effect, 100 = complete control, read-out: Ryegrass, Italian plant response rating (0 to 100 scale)): 0%; plant injury at 125 g/ha ([14]; visual injury vs untreated controls after approx. 10 d, 0 = no effect, 100 = complete control, read-out: Wheat plant response rating (0 to 100 scale)): 20%; plant injury at 125 g/ha ([15]; visual injury vs untreated controls after approx. 10 d, 0 = no effect, 100 = complete control, read-out: Corn plant response rating (0 to 100 scale)): 20%; plant injury at 500 g/ha [15, 25]: 30%; pest or weed control at 125 g/ha ([16]; visual injury vs untreated controls after approx. 10 d, 0 = no effect, 100 = complete control, read-out: Galium plant response rating (0 to 100 scale)): 40%; pest or weed control at 500 g/ha [16, 26]: 60%

From US12077503B2, “Substituted cyclic amides and their use as herbicides” (FMC CORPORATION, priority 2015, dated 2024)
